Assay results published in US5395922A, “Yeast processing system” (Novo Nordisk A/S, priority 1989, dated 1995).

Assays:
Format in all cases: biochemical
plasmin = plasmin (Homo sapiens, UniProt P00747); assay: Plasmin inhibition titration curves (S 2251 substrate, rate of nitroaniline production); conditions: 30 minutes incubation of enzyme with inhibitor, 0.6 mM S 2251; FIG. 5B
Description: (§1) The trypsin and plasmin inhibition by Glu-Leu-aprotinin (1-58) in terms of titration curves determined as described below were indistinguishable from that of bovine pancreatic aprotinin (Aprotinin Novo). After incubation of the enzyme with aprotinin or its analogues for 30 minutes, 0.6 mM S 2251 (KabiVitrum) was added and the activity measured as the rate of nitroaniline production. The activity as a function of aprotinin concentration is plotted in FIG. 5A and 5B. Complete inhibition of both enzymes with all three inhibitors was observed.

trypsin [1] = assay: Trypsin inhibitor specific activity, spectrophotometric assay (method of Kassel); conditions: comparison with native aprotinin
Description: Yeast strain KFN-837 was grown on YPD medium (1% yeast extract, 2% peptone (from Difco Laboratories), and 6% glucose). A 200 ml culture of the strain was shaken at 250 rpm at 30° C. for 3 days to an O.D. at 600 nm of 20 (Dry yeast biomass 18.8 g/liter). After centrifugation the supernatant was analyzed by FPLC ion exchange chromatography. The yeast supernatant was filtered through a 0.22 μm Millex GV filter unit and 1 ml was applied on a MonoS cation exchange column (0.5×5 cm) equilibrated with 20 mM Bicine, pH=8.7. After wash with equilibration buffer the column was eluted with a linear NaCl gradient (0-1M) in equilibration buffer. Trypsin inhibitor activity was quantified in the eluted fractions by spectrophotometric assay (Kassel, B., Methods Enzymol. 19 (1970), 844-852) and furthermore by integration of absorption at 280 nm from [formula] The yield was […] of Glu-Leu-aprotinin(1-58).
as §1, with “Complete inhibition of both enzymes with all three inhibitors was observed.” left out

trypsin [2] = assay: Trypsin inhibition titration curves (S 2251 substrate, rate of nitroaniline production); conditions: 30 minutes incubation of enzyme with inhibitor, 0.6 mM S 2251; FIG. 5A
Description: as §1

Sequence of plasmin (P00747 581-810 limits assumed, species assumed): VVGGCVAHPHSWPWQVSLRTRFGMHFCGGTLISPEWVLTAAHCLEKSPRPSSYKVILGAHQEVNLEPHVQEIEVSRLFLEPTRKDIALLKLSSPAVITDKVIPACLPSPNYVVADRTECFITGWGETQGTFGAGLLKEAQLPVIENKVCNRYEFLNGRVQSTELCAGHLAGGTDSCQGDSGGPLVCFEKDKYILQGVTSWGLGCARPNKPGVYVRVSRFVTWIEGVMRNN
Sequence of plasmin (P00747 97-580 partner limits assumed, species assumed): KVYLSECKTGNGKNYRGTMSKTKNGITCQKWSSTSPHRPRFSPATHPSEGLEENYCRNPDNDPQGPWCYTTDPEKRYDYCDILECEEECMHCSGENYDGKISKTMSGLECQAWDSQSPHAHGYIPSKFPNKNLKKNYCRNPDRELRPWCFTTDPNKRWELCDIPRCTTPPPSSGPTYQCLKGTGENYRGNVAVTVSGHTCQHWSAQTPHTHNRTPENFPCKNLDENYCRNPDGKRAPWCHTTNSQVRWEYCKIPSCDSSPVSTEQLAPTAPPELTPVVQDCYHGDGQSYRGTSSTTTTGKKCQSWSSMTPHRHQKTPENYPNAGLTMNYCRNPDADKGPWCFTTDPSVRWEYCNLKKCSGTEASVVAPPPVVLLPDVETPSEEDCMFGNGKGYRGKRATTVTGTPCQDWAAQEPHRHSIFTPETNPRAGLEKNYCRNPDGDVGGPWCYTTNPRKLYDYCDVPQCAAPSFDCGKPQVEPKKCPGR

Substance	plasmin inhibition in terms of titration curves, compared with bovine pancreatic aprotinin (Aprotinin Novo) (plasmin)	specific (inhibitory) activity against trypsin compared with native / bovine pancreatic aprotinin (trypsin [1])	trypsin inhibition in terms of titration curves, compared with bovine pancreatic aprotinin (Aprotinin Novo) (trypsin [2])
Glu-Leu-aprotinin(1-58)	indistinguishable	identical within the experimental error	indistinguishable
aprotinin(1-58)	–	indistinguishable	–
Glu-Leu-Asp-Leu-aprotinin(1-58)	indistinguishable	–	indistinguishable
